Tests used:
[1] = tested on: transition rate constant from G1 to cycling for HSPCs; experiment: Semi-mechanistic multi-compartment PK/PD model of hematopoiesis; design: species or system mouse, rat, and dog; conditions: conservative modification of literature estimate; elimination rate constant 1/h
From the text: Owing to the invasive nature of the PD marker collection (i.e. bone marrow aspiration), a semi-mechanistic PK/PD model based on animal PK/PD data and human PK data was developed to guide the selection of an optimal dose level for bone marrow aspiration in humans during dose escalation in the Phase I first-in-human study. The model was constructed using PK data from four species (mouse, rat, dog, and human) and PD data from three species (mouse, rat, and dog; Online Resources 1 and 2).
The PK/multi-compartment PD model was based on a myelosuppression model previously published by Friberg et al., with modifications. […] In the model used in the current study, stem cells and progenitor cells were separated into two compartments, with experimental data measured for each compartment. […] Another important deviation from the Friberg model was the mechanism postulated for the homeostasis of the […] (PMNs). We postulated that the feedback mechanism has a set point target and that deviations from that target would accelerate (in the case of too few PMNs) or decelerate (in the case of too many PMNs) the transition of G1-phase cells to S-phase cells in the stem cell population.
The model was constructed in two stages. First, preclinical PK data (e.g. doses, routes, and schedule of administration, observed concentrations) were compiled and modeled by allometric scaling. A sequential PK/PD modeling approach (population PK parameters and data approach) was then employed in which a semi-mechanistic PD model with various physiological compartments was created, and specific assumptions entered (Online Resource 3). Traditional forward addition/backward elimination was used for PK modeling. […] Many parameters in this complex model could not be estimated and were fixed either to the literature values or values selected on the basis of discussions with domain experts and sensitivity analysis. In preclinical animal models, the PD analysis modeled bone marrow cells positive for 5′-ethynyl-2′-deoxyuridine (EdU) and peripheral neutrophil counts simultaneously. […]

[2] = cited from earlier work

O=c1[nH]cc(F)c(=O)[nH]1 [5-FU, 5-fluorouracil, reference compound]
pharmacologic activity half-life of 5-FU [1]: 42 min | half-life of 5-FU, literature estimate [2]: 8 to 20 min
